Source: the OligoGym collection
HELM strings list units from the 5' end as sugar, base in round brackets, then linkage (d deoxyribose, r ribose, m 2'-O-methyl, p phosphodiester). Strings are as the collection lists them, not checked against the first reports. ss, as = sense and antisense strand; [fl2r] = 2'-fluoro

Details: siRNA
Note: test system not given here.

Substance	target mRNA knockdown
RNA1{d(G)p.d(C)p.d(A)p.d(G)p.d(C)p.d(A)p.d(C)p.d(G)p.d(A)p.d(C)p.d(U)p.d(U)p.d(C)p.d(U)p.d(U)p.d(C)p.d(A)p.d(A)p.d(G)p.r(T)p.r(T)}|RNA2{r(C)p.r(U)p.r(U)p.r(G)p.r(A)p.r(A)p.r(G)p.r(A)p.r(A)p.r(G)p.r(U)p.r(C)p.r(G)p.r(U)p.r(G)p.r(C)p.r(U)p.r(G)p.r(C)p.r(T)p.r(T)}$$$RNA1{StrandType:ss}|RNA2{StrandType:as}$	38%
RNA1{m(A)p.m(A)p.m(G)p.m(G)p.m(A)p.m(G)p.m(A)p.m(U)p.m(C)p.m(A)p.m(A)p.m(C)p.m(A)p.m(U)p.m(U)p.m(U)p.m(U)p.m(C)p.m(A)p.r(T)p.r(T)}|RNA2{[fl2r](U)p.r(G)p.r(A)p.r(A)p.r(A)p.r(A)p.[fl2r](U)p.r(G)p.r(U)p.r(U)p.r(G)p.r(A)p.[fl2r](U)p.[fl2r](C)p.[fl2r](U)p.[fl2r](C)p.[fl2r](C)p.[fl2r](U)p.[fl2r](U)p.r(T)p.r(T)}$$$RNA1{StrandType:ss}|RNA2{StrandType:as}$	71%
RNA1{m(A)p.m(A)p.m(G)p.m(G)p.m(A)p.m(G)p.m(A)p.m(U)p.m(C)p.m(A)p.m(A)p.m(C)p.m(A)p.m(U)p.m(U)p.m(U)p.m(U)p.m(C)p.m(A)p.r(T)p.r(T)}|RNA2{m(U)p.r(G)p.r(A)p.r(A)p.r(A)p.r(A)p.m(U)p.r(G)p.r(U)p.r(U)p.r(G)p.r(A)p.m(U)p.m(C)p.m(U)p.m(C)p.m(C)p.m(U)p.m(U)p.r(T)p.r(T)}$$$RNA1{StrandType:ss}|RNA2{StrandType:as}$	29%
RNA1{m(A)p.m(A)p.m(G)p.m(G)p.m(A)p.m(G)p.m(A)p.m(U)p.m(C)p.m(A)p.m(A)p.m(C)p.m(A)p.m(U)p.m(U)p.m(U)p.m(U)p.m(C)p.m(A)p.r(T)p.r(T)}|RNA2{r(U)p.r(G)p.r(A)p.r(A)p.r(A)p.r(A)p.r(U)p.r(G)p.r(U)p.r(U)p.r(G)p.r(A)p.r(U)p.r(C)p.r(U)p.r(C)p.r(C)p.m(U)p.m(U)p.r(T)p.r(T)}$$$RNA1{StrandType:ss}|RNA2{StrandType:as}$	77%
RNA1{m(A)p.m(A)p.m(G)p.r(G)p.r(A)p.m(G)p.m(A)p.m(U)p.r(C)p.r(A)p.r(A)p.m(C)p.m(A)p.m(U)p.r(U)p.r(U)p.m(U)p.m(C)p.m(A)p.r(T)p.r(T)}|RNA2{m(U)p.m(G)p.m(A)p.r(A)p.r(A)p.m(A)p.m(U)p.m(G)p.r(U)p.r(U)p.r(G)p.m(A)p.m(U)p.m(C)p.r(U)p.r(C)p.m(C)p.m(U)p.m(U)p.r(T)p.r(T)}$$$RNA1{StrandType:ss}|RNA2{StrandType:as}$	45%
RNA1{m(A)p.m(A)p.m(G)p.r(G)p.r(A)p.r(G)p.r(A)p.r(U)p.r(C)p.r(A)p.r(A)p.r(C)p.r(A)p.r(U)p.r(U)p.r(U)p.m(U)p.m(C)p.m(A)p.r(T)p.r(T)}|RNA2{m(U)p.m(G)p.m(A)p.r(A)p.r(A)p.r(A)p.r(U)p.r(G)p.r(U)p.r(U)p.r(G)p.r(A)p.r(U)p.r(C)p.r(U)p.r(C)p.m(C)p.m(U)p.m(U)p.r(T)p.r(T)}$$$RNA1{StrandType:ss}|RNA2{StrandType:as}$	76%
RNA1{m(A)p.m(A)p.m(G)p.r(G)p.r(A)p.r(G)p.r(A)p.r(U)p.r(C)p.r(A)p.r(A)p.r(C)p.r(A)p.r(U)p.r(U)p.r(U)p.r(U)p.r(C)p.r(A)p.r(T)p.r(T)}|RNA2{m(U)p.m(G)p.m(A)p.r(A)p.r(A)p.r(A)p.r(U)p.r(G)p.r(U)p.r(U)p.r(G)p.r(A)p.r(U)p.r(C)p.r(U)p.r(C)p.r(C)p.r(U)p.r(U)p.r(T)p.r(T)}$$$RNA1{StrandType:ss}|RNA2{StrandType:as}$	60%
RNA1{m(A)p.m(A)p.r(C)p.r(C)p.r(C)p.m(A)p.r(C)p.r(C)p.m(A)p.r(C)p.m(A)p.r(G)p.r(C)p.m(U)p.m(A)p.r(G)p.m(A)p.m(A)p.r(C)p.m(U)p.m(U)}|RNA2{m(A)p.m(A)p.r(G)p.m(U)p.m(U)p.r(C)p.m(U)p.m(A)p.r(G)p.r(C)p.m(U)p.r(G)p.m(U)p.r(G)p.r(G)p.m(U)p.r(G)p.r(G)p.r(G)p.m(U)p.m(U)}$$$RNA1{StrandType:ss}|RNA2{StrandType:as}$	7%
